From patent US20030162788A1, “Combination of MTP inhibitors or apoB-secretion inhibitors with fibrates for use as pharmaceuticals” (Boehringer Ingelheim Pharma KG, priority 2002, published 2003)

Columns and labels:
fa/fa rats [1] = assay: Activities of liver enzymes (ALT, AST, GLDH) in the plasma of fa/fa rats (liver toxicity); format: in vivo, rat; conditions: for ALT [U/I], MW ± SEM / AST [U/I], MW ± SEM: plasma, fenofibrate 100 mg/kg twice a day (eight times)
Source text: The horizontal line in the diagram indicates three times the level in the control group and is interpreted as the threshold value for a clearly toxic side effect.).

fa/fa rats [2] = assay: Cholesterol and triglycerides in the plasma of hyperlipaemic fa/fa rats after oral treatment; conditions: for lowering of cholesterol in the plasma compared with the control group / lowering of triglycerides in the plasma compared with the control group: Example A, female fa/fa rats 33 weeks old, MTP inhibitor 1 mg/kg once a day (four times), bezafibrate 100 mg/kg twice a day (eight times), blood 24 hours after last MTP inhibitor dose or 15 hours after last fibrate dose
Experimental: The effectiveness of the combination of an MTP inhibitor with a fibrate and the effect on hepatic steatosis and liver toxicity can be tested in vivo as follows. Hyperlipaemic rats (e.g. of the rat strain fa/fa) are given the active substances as a suspension in 0.45% NaCl and 5% polyethyleneglycol 400 by oral route using an oesophageal tube (5 ml/kg of body weight). The substances may be given once or several times a day for a period of 4 days, or alternatively over a longer period. The day after the last dose, blood samples are taken by puncturing the retroorbital venous plexus and plasma is prepared. The concentrations of cholesterol and triglycerides in the plasma and the activities of the liver enzymes (e.g. ALT, AST, GLDH) are determined by well-known methods of clinical chemistry. These substrates and enzymes in the plasma may be measured for example with a HITACHI 917 Automatic Analyzer using reagents supplied by Roche Diagnostics (Mannheim) in accordance with the following procedures laid down by Roche Diagnostics:
cholesterol: BM/HITACHI 917, Boehringer Mannheim System No. 1 491 458
triglycerides: BM/HITACHI 917, Boehringer Mannheim System No. 1 730 711.
Female fa/fa rats 33 weeks old were either treated four times with an MTP inhibitor (given orally once a day at 7 a.m.) or treated eight times with a fibrate (given twice a day by oral route at 7 a.m. and 4 p.m.) A third group were given both the MTP inhibitor and the fibrate. The MTP inhibitor was 9-[4-[4-[2-(4-trifluoromethylphenyl)benzoylamino]piperidin-1-yl]butyl]-N-(2,2,2-trifluoro-ethyl)-9H-fluorene-9-carboxamide in a dosage of 1 mg/kg. The fibrate was bezafibrate in a dosage of 100 mg/kg. 24 hours after the last dose of the MTP inhibitor or 15 hours after the last dose of the fibrate blood samples were taken from the animals and the cholesterol, triglycerides and liver enzymes in the plasma were measured.
Male fa/fa rats 32 weeks old were either treated four times with an MTP inhibitor (given orally once a day between about 7 and 8 a.m.) or treated eight times with a fibrate (given twice a day by oral route between about 7 and 8 a.m. and at 4 p.m.) Another group were given both the MTP inhibitor and the fibrate. […] The fibrate was fenofibrate in a dosage of 100 mg/kg. 24 hours after the last dose of the MTP inhibitor or 15 hours after the last dose of fenofibrate, blood was taken from the animals and the levels of cholesterol, triglycerides and liver enzymes in the plasma were measured.
Male fa/fa rats 33 weeks old were either treated four times with an MTP inhibitor (given orally once a day between about 7 and 8 a.m.) or treated eight times with a fibrate (given twice a day by oral route between about 7 and 8 a.m. and at 4 p.m.) Another group were given both the MTP inhibitor and the fibrate. […] The fibrate was fenofibrate in a dosage of 100 mg/kg. 24 hours after the last dose of the MTP inhibitor or 15 hours after the last dose of fenofibrate, blood was taken from the animals and the levels of cholesterol, triglycerides and liver enzymes in the plasma were measured.

fa/fa rats [3] = assay: Hepatic steatosis: lipid content (triglycerides, free fatty acids) in the liver of fa/fa rats; format: in vivo, rat; conditions: Example B; female fa/fa rats 38 weeks old; oral; MTP inhibitor 0.3 mg/kg once a day (four times); livers removed 24 hours after last dose
Experimental: In addition, the liver may be removed in order to determine the hepatic steatosis by measuring the lipid content (triglycerides, free fatty acids, cholesterol) in this organ. To do this, 200 mg of liver are homogenised after the addition of 2 ml of isopropanol and extracted for 10 min with shaking. The extract is centrifuged for 10 min at 4° C. and 4000 rpm and one aliquot of the supernatant is used to determine the lipid parameters. The lipids in the liver are measured using commercially available test kits following the manufacturer's instructions (for triglycerides: Triglycerid-Duo S made by BIOMED Labordiagnostik GmbH, Oberschleiβheim; for cholesterol: Cholesterin-Duo S made by BIOMED Labordiagnostik GmbH, Oberschleiβheim; for free fatty acids: NEFA C made by Wako Chemicals GmbH, Neuss).
The MTP inhibitor leads to an increase in the triglycerides and the free fatty acids in the liver (FIGS. 3a and 3b). By combining it with the fibrate, the lipid accumulation caused by the MTP inhibitor is lowered by about 50% (triglycerides in the liver) or by about 80% (free fatty acids in the liver).

[4] = Example C, male fa/fa rats 32 weeks old, oral, compound (c) 10 mg/kg once a day (four times)
[5] = Example D, male fa/fa rats 33 weeks old, oral, compound (a) 3 mg/kg once a day (four times)
[6] = Example C, male fa/fa rats 32 weeks old, compound (c) 10 mg/kg once a day, fenofibrate 100 mg/kg twice a day
[7] = Example D, male fa/fa rats 33 weeks old, fenofibrate 100 mg/kg twice a day
[8] = Example A, female fa/fa rats 33 weeks old, oral, MTP inhibitor 1 mg/kg once a day (four times)
[9] = Example C, male fa/fa rats 32 weeks old, compound (c) 10 mg/kg oral once a day
[10] = Example D, male fa/fa rats 33 weeks old, compound (a) 3 mg/kg oral once a day
[11] = Example D, male fa/fa rats 33 weeks old, compound (a) 3 mg/kg once a day, fenofibrate 100 mg/kg twice a day

Structure (SMILES) | ALT [U/I], MW ± SEM (fa/fa rats [1]; [4]) | AST [U/I], MW ± SEM (fa/fa rats [1]; [4]) | ALT [U/I], MW ± SEM (fa/fa rats [1]; [5]) | AST [U/I], MW ± SEM (fa/fa rats [1]; [5]) | reduction of cholesterol in the plasma compared with the control group (fa/fa rats [2]; [6]) | reduction of triglycerides in the plasma compared with the control group (fa/fa rats [2]; [6]) | lowering of cholesterol in the plasma compared with the control group (fa/fa rats [2]) | lowering of triglycerides in the plasma compared with the control group (fa/fa rats [2]) | further results
CC(C)OC(=O)C(C)(C)Oc1ccc(C(=O)c2ccc(Cl)cc2)cc1 [Fenofibrate, fenofibrate] | 47.0 ± 4.9 U/I | 30.3 ± 2.7 U/I | 44.7 ± 5.3 U/I | 33.5 ± 3.7 U/I | 15% | 20% |  |  | increase of cholesterol in the plasma compared with the control group (fa/fa rats [2]; [7]): 10%; increase of triglycerides in the plasma compared with the control group (fa/fa rats [2]; [7]): 38%
CC(C)(Oc1ccc(CCNC(=O)c2ccc(Cl)cc2)cc1)C(=O)O [bezafibrate] |  |  |  |  |  |  | 47% | 56% | 
O=C(NC1CCN(CCCCC2(C(=O)NCC(F)(F)F)c3ccccc3-c3ccccc32)CC1)c1ccccc1-c1ccc(C(F)(F)F)cc1 [9-[4-[4-[2-(4-trifluoromethylphenyl)benzoylamino]piperidin-1-yl]butyl]-N-(2,2,2-trifluoro-ethyl)-9H-fluorene-9-carboxamide] |  |  |  |  |  |  | 29% | 84% | free fatty acids in the liver (fa/fa rats [3]): increase; triglycerides in the liver (fa/fa rats [3]): increase; increase in the ALT activity in the blood plasma compared with the control group (fa/fa rats [1]; [8]): 5.2 fold; increase in the GLDH activity in the blood plasma compared with the control group (fa/fa rats [1]; [8]): 7.7 fold
Cn1cc(NC(=O)c2ccccc2-c2ccc(C(F)(F)F)cc2)cc1C(=O)NCc1ccc(N2CCC3(CCCCC3)CC2)cc1 [Compound (c), N-[4-(3-Aza-spiro[5.5]undec-3-yl)-phenylmethyl]-4-(4′-trifluoromethylbiphenyl-2-carbonylamino)-1-methyl-pyrrole-2-carboxylic acid amide] | 232.9 ± 40.6 U/I | 232.7 ± 34.2 U/I |  |  | 58% | 94% |  |  | increase in the activity of ALT in the plasma (fa/fa rats [1]; [9]): 3.6 fold; increase in the activity of AST in the plasma (fa/fa rats [1]; [9]): 4.5 fold
Cn1cc(NC(=O)c2ccccc2-c2ccc(C(F)(F)F)cc2)cc1C(=O)NCC#Cc1ccc(-c2ccccc2)cc1 [Compound (a), N-[3-(Biphenyl-4-yl)-prop-2-ynyl]-4-(4′-trifluoromethylbiphenyl-2-carbonylamino)-1-methyl-pyrrole-2-carboxylic acid amide] |  |  | 232.8 ± 67.8 U/I | 218.4 ± 57.1 U/I |  |  |  |  | increase in the activity of ALT in the plasma (fa/fa rats [1]; [10]): 5.1 fold; increase in the activity of AST in the plasma (fa/fa rats [1]; [10]): 6.7 fold; reduction of cholesterol in the plasma compared with the control group (fa/fa rats [2]; [11]): 26%; reduction of triglycerides in the plasma compared with the control group (fa/fa rats [2]; [11]): 76%
